Drawing on ChEMBL document CHEMBL1201862, “PubChem BioAssay data set” (2004), this text covers AC50, EC50 and IC50 for 41 compounds.

In data set [1] the target is Cytochrome P450 2C9 (Homo sapiens, UniProt P11712).
Data set [2] addresses Cytochrome P450 3A4 (Homo sapiens, UniProt P08684).
Data set [3] has as its target T1, Corticotropin-releasing factor receptor 2/Corticotropin-releasing factor-binding protein (Homo sapiens, UniProt P24387+Q13324).
T1 sequence (Q13324 whole entry): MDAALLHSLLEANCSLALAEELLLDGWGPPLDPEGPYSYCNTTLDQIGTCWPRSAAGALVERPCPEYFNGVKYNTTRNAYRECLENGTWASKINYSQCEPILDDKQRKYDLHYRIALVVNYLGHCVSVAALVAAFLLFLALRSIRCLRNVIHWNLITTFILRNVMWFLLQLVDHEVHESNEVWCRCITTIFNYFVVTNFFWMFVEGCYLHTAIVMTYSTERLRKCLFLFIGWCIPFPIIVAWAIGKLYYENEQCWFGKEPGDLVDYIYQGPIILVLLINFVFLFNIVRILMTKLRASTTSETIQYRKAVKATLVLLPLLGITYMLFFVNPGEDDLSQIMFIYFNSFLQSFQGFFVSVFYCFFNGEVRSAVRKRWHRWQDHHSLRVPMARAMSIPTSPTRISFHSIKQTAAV
T1 sequence (P24387 whole entry): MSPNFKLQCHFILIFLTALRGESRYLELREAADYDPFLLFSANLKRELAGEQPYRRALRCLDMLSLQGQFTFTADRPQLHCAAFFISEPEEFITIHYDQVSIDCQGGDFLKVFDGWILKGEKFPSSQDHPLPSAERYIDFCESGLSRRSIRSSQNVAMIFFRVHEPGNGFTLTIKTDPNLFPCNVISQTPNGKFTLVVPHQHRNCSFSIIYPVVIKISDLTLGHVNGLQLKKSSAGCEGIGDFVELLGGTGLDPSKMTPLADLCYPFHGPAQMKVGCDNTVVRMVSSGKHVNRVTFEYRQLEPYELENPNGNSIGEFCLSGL
Kind of data set: activators of CRF receptor 2 with binding protein – uHTS hits, confirmation (AID 602473). The data set is classed as functional. The following applies: read-out: EC50_Mean.

In data set [4] the target is T1, Corticotropin-releasing factor receptor 2/Corticotropin-releasing factor-binding protein. As to the kind of experiment: Dose Response confirmation of uHTS hits for small molecule antagonists of the CRF-binding protein and CRF-R2 receptor complex. Type of data set: functional. The following applies: read-out: IC50_Mean.
Data set [5] has as its target Cytochrome P450 2D6 (Homo sapiens, UniProt P10635).
Data set [6] has as its target Cytochrome P450 2C19 (Homo sapiens, UniProt P33261). Kind of data set: Cytochrome panel assay with activity outcomes. Panel member name: p450-cyp2c19 Compounds with AC50 equal or less than 10 uM are considered active. The data set is classed as functional.
Data set [7] has as its system INS1. Kind of data set: INS-1E survival protection against cytokine death – cell-based, luminescence, retest, dose response (AID 449756).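 Also: cell death triggered by IL-1 beta plus TNF-alpha plus IFN-gamma mixture; protective hits raise ATP signal compared with cytokine alone wells.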 The following applies: Rattus norvegicus. The data set is classed as functional.
Data set [8] addresses T2, Cytochrome P450 1A2 (Homo sapiens, UniProt P05177).
T2 sequence (P05177 whole entry): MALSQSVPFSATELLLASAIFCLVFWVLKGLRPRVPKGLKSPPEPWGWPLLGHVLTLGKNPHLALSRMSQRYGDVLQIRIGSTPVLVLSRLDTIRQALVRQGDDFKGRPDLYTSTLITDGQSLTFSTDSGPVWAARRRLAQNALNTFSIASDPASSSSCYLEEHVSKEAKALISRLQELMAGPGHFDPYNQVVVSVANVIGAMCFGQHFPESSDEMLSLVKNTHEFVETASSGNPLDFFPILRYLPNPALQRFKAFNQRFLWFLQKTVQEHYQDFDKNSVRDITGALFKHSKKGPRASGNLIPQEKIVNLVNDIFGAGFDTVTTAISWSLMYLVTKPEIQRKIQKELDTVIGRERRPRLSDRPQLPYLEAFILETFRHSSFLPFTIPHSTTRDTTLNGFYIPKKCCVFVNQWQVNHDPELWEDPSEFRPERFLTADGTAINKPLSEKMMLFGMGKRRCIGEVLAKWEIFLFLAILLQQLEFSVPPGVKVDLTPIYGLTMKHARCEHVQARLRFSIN

For data set [9], the target named is FAD-linked sulfhydryl oxidase ALR (Homo sapiens, UniProt P55789). Kind of data set: ALR-catalysed DTT oxidation blockers – biochemical, H2O2 detection, luminescence, cherry-pick, dose response (AID 493248).
FAD-linked sulfhydryl oxidase ALR, sequence (P55789 whole entry): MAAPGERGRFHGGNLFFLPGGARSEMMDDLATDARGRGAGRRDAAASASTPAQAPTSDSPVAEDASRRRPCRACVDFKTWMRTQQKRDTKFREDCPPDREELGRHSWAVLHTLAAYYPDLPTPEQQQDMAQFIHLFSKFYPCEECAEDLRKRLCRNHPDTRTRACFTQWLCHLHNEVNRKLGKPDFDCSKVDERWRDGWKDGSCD

The structures appear in SMILES notation. Calls of active or inactive are those of the source.

Cytochrome P450 2C9, sequence (P11712 whole entry): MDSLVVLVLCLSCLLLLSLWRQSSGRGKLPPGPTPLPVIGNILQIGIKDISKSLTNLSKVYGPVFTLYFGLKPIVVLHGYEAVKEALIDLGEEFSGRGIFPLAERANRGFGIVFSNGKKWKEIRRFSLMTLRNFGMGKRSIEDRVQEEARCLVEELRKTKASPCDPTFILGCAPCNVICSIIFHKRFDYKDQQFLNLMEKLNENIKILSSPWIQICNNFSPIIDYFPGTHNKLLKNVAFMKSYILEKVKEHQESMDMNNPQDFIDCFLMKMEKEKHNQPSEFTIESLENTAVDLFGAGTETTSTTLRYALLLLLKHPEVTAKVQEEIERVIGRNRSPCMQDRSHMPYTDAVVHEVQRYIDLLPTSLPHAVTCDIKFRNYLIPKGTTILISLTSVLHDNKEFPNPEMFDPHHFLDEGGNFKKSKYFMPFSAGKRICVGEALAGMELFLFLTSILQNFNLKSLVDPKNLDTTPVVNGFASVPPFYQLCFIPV
Cytochrome P450 2D6, sequence (P10635 whole entry): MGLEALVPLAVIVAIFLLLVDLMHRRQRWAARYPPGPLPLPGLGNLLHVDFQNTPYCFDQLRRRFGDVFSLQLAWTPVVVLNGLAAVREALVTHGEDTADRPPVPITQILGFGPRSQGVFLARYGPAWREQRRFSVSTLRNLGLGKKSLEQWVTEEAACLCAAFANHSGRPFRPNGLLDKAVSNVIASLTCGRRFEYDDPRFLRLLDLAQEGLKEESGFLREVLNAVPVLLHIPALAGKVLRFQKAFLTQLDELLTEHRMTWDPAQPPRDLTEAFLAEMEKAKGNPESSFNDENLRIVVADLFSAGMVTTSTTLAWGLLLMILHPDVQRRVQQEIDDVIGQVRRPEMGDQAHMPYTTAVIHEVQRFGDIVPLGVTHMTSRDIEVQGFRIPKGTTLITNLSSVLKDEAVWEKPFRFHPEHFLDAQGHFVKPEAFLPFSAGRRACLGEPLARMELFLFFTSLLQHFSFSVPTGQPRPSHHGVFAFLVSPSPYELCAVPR
Cytochrome P450 2C19, sequence (P33261 whole entry): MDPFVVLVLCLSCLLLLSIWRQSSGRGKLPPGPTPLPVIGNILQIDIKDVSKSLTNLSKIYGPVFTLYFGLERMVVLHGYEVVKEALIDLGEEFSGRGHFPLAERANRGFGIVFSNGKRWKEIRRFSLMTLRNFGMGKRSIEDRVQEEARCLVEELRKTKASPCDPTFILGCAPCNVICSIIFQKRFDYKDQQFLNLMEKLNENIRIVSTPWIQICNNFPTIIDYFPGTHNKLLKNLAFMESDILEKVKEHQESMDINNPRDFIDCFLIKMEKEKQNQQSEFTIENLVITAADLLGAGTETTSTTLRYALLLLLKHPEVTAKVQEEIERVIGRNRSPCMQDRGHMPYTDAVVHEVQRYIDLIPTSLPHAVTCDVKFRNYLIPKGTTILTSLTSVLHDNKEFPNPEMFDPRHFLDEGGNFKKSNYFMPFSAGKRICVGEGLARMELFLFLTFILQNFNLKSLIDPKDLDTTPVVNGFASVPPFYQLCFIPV
Cytochrome P450 3A4, sequence (P08684 whole entry): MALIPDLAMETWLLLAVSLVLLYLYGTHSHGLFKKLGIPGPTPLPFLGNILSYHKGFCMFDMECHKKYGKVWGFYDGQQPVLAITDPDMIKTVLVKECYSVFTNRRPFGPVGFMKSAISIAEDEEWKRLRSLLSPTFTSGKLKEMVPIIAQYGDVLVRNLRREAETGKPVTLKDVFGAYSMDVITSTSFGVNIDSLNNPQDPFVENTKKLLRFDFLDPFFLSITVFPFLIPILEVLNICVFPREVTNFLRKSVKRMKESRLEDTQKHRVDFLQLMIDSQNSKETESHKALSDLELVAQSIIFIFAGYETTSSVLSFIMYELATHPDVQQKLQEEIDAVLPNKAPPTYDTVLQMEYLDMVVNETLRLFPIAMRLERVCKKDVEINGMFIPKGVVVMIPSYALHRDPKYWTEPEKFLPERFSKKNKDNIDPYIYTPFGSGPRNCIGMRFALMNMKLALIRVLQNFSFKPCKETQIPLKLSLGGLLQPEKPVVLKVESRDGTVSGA

As to `CSc1nc2n(n1)C(c1cccc(F)c1)C(C(=O)Nc1ccc(C)cc1C)=C(C)N2` (stereo not given), the AC50 in [1] was 3.98 µM (inconclusive); in data set [2], 0.708 µM (inconclusive). Turning to `CCC1=C(C[C@H]2NCCc3cc(OC)c(OC)cc32)C[C@H]2c3ccccc3CCN2C1`, the AC50 in data set [1] and in data set [2] was 3.16 µM (inconclusive) each time. For `O=C(N/N=C/c1ccccc1Cl)C1CC1`, the EC50 in [3] was > 53 µM (inactive). In data set [4], the IC50 was > 47.1 µM (inactive). Regarding `Cc1ccc(N(Cc2ccc([N+](=O)[O-])cc2)C(=O)c2ccco2)cc1`, the concentration at half-maximal activity (AC50) is 28.2 µM (inconclusive) in [2] and 0.562 µM (inconclusive) in [5]. For the same compound, the EC50 in data set [3] is > 53 µM (inactive). Also, the IC50 in data set [4] was > 47.1 µM (inactive). With `COc1ccccc1-n1cnnc1SCC(=O)NCc1cccs1`, the EC50 in [3] is > 53 µM (inactive). In data set [4], the IC50 is > 47.1 µM (inactive).

In the case of `CC(C)(C)NC(=O)C(=O)NNC(=O)c1ccccc1`, the AC50 in [1] was 1.78 µM (inconclusive); in [6], “inconclusive”. `COc1ccc(Cc2nnc(NC(=O)c3ccc(Cl)c([N+](=O)[O-])c3)s2)cc1`: the concentration at half-maximal activity (AC50) in data set [1] was 1.41 µM (inconclusive); in data set [2], 0.631 µM (inconclusive). For `Cc1ccc(C)c(NC(=O)Cn2cnc3c(oc4ccccc43)c2=O)c1`, the EC50 in data set [3] was > 53 µM (inactive). For the same compound, in data set [4], the IC50 was > 47.1 µM (inactive). Turning to `CC(C)C(=O)Nc1ccc(C(=O)NNC(=O)C(c2ccccc2)c2ccccc2)cc1`, the AC50 in data set [1] was 5.01 µM (inconclusive); in [2], 4.47 µM (inconclusive). In the case of `COc1ccccc1CNC(=O)C1CC(=O)N(C2CCCC2)C1` (stereo not given), the concentration at half-maximal activity (AC50) in data set [1] is 0.0224 µM (inconclusive); in data set [2], 22.4 µM (inconclusive); in data set [6] (read-out: AC50) it was 28.2 µM (inconclusive). Regarding `CC(C)c1ccc(CNc2cc(N3CCCC3)ccc2[N+](=O)[O-])cc1`, the half-maximal activity concentration (AC50) in data set [1] was 2.24 µM (inconclusive). With `CCOC(=O)c1sc(NC(=O)CSc2n[nH]c(-c3ccncc3)n2)c(C#N)c1C`, in data set [3], the EC50 is 8.57 µM (active). For the same compound, the IC50 in [4] was 16.3 µM (active).

As to `C[N+](C)(C)CCC(=O)c1cccc2ccccc12`, the AC50 in [1] was 12.6 µM (inconclusive); in data set [2], 0.2 µM (inconclusive); in data set [5] it was 10 µM (inconclusive). Regarding `Oc1[nH]ncc1/C=N/c1ccc(Cl)cc1`, the EC50 in data set [3] was > 53 µM (inactive). The IC50 in data set [4] is > 47.1 µM (inactive). Turning to `CCOC(=O)c1ccc(NC(=O)c2cccnc2)cc1`, in data set [7], the AC50 was 3.75 µM (active). Consider `Cc1ccc(CNC(=O)c2cc(-c3ccccc3C)n(CC3CC(c4cccc([N+](=O)[O-])c4)=NO3)n2)cc1` (stereo not given), for which the EC50 in [3] was > 53 µM (inactive). The IC50 in data set [4] is > 47.1 µM (inactive).

For the compound `N#Cc1ccc(CN2CC[C@@]3(CCCN(C(=O)c4ccncc4)C3)C2)cc1`, the values for the AC50 in data set [1], in data set [5] and in [8] were 31.6 µM (inconclusive), 20 µM (inconclusive) and 39.8 µM (inconclusive), respectively. For `CCN(CC)CCCNC(=O)C1CCC(=O)N(c2ccc(OC)cc2)C1c1ccc(F)cc1` (stereo not given), the results for the AC50 in [1] and in data set [6] were 39.8 µM (inconclusive) and “inconclusive”, respectively. Turning to `N#Cc1cccc(-c2ccc3ncnc(NCc4cccs4)c3c2)c1`, the values for the AC50 in data set [1] and in data set [5] were 0.501 µM (inconclusive) and 12.6 µM (inconclusive), respectively.

With `CC1=CN2C(=NC(=O)CC2(C)C(=O)N(CC(=O)NC2CCCC2)c2ccccc2C)C=C1` (stereo not given), the EC50 in [3] was > 53 µM (inactive). Further, in data set [4], the IC50 is > 47.1 µM (inactive). The matching figures for `CC(C)CN1CCN(Cc2cccc3nccnc23)CC1CCO` (stereo not given): > 53 µM (inactive) and > 47.1 µM (inactive). Take `O=C(Cc1ccccc1)NNc1c2ccccc2nc2ccccc12`: in data set [9], the AC50 was 2430 nM (active). Take `COc1ccc(NC2CCCN(C(=O)c3cccc(C)n3)C2)cc1OC` (stereo not given): the EC50 in data set [3] was > 53 µM (inactive). Moreover, the IC50 in [4] was > 47.1 µM (inactive). Take `Sc1nnc(-c2ccccc2)c(-c2ccccc2)n1`: the AC50 in data set [9] is 567 nM (active). Consider `CCOc1cc(CNc2ccc(OC)cc2)cc(Br)c1OCC(=O)NC(C)(C)C`, for which, in data set [1], the AC50 is 7.08 µM (inconclusive). Consider `CNc1ccc(C2(O)C(=O)c3ccccc3C2=O)cc1`, for which the concentration at half-maximal activity (AC50) in data set [9] was 664 nM (active). Take `CCC1C(=O)N=C(SCC(=O)Nc2ccc(C(=O)OC)cc2)NC1=O` (stereo not given): the AC50 in data set [1] is 31.6 µM (inconclusive). As to `FC(F)(F)c1ccccc1N=C(S)N1CCc2ccccc2C1`, the AC50 in [7] is 8.78 µM (active). With `Cc1ccc(-n2nnnc2SCC(=O)Nc2cccnc2Cl)cc1`, the EC50 in data set [3] is > 53 µM (inactive). Besides, the IC50 in [4] is > 47.1 µM (inactive). Consider `COc1cc(NC(=O)c2ccccc2Cl)ccc1NC(=O)c1ccco1`, for which the AC50 in [1] is 1.12 µM (inconclusive); in data set [5], 22.4 µM (inconclusive); in data set [8] it was 17.8 µM (inconclusive).

Take `CCCCOc1ccc(C(=O)N/C(=C\c2cccc([N+](=O)[O-])c2)C(=O)OCCC)cc1`: the concentration at half-maximal activity (AC50) in [1] is 0.708 µM (inconclusive). On to `CCSc1ccc(NC(=O)c2cccnc2)cc1`, for which the AC50 in [7] was 7.23 µM (active). Take `Cc1cc(C)cc(Oc2cc(NC(=O)c3cn(C)nc3C)cc([N+](=O)[O-])c2)c1`: in [7], the AC50 was 13.5 µM (active). Turning to `CC(NC(=O)CCCCCNC(=O)N1CCn2c1nc1ccccc12)c1ccccc1` (stereo not given), the AC50 in data set [9] was 4510 nM (active).

In the case of `CC(Sc1nnnn1-c1ccccc1)C(=O)Nc1ccccc1-c1ccccc1` (stereo not given), the EC50 in data set [3] was > 53 µM (inactive). The IC50 in data set [4] is > 47.1 µM (inactive). Take `CCN(CC)C(=O)c1csc(Nc2ccc(C)cc2)n1`: in [9], the concentration at half-maximal activity (AC50) is 5190 nM (active).

`O=C(NCc1ccncc1)c1cc(-c2ccc(Cl)cc2)oc1C(F)(F)F`: the half-maximal activity concentration (AC50) in [7] is 18.6 µM (active).

With `CNS(=O)(=O)c1cnccc1N1CCN(c2cccc(C)c2)CC1`, the AC50 in data set [9] was < 5 nM (active). `COC(=O)c1cnn(C(=O)c2ccccc2Br)c1N`: the AC50 in data set [1] is 22.4 µM (inconclusive). Regarding `Cc1ccc(Nc2nc(CSc3n[nH]c(N)n3)cs2)cc1`, the AC50 in data set [9] is < 5 nM (active). As to `C/C(=N\Nc1nc(C)cc(-c2ccccc2)n1)c1ccccc1`, the AC50 in data set [7] is 2.37 µM (active).

Broadly, the AC50 is the midpoint of the concentration-response curve, whichever way the signal moves.
